Data reported in PubChem BioAssay AID248 (DTP/NCI, 2004).
Several values for one entry are separate records, joined by “and”; a condition that tells them apart may be missing. Equal values may be shown once. Toxic doses and inconclusive results are not listed. Rule as the data show it: active = T/C of 150% or more; inactive = T/C below 125%.

System: L1210 leukemia ip in BDF1 mice, survival T/C
Assay: NCI In Vivo Anticancer Drug Screen. Data for tumor model L1210 Leukemia (intraperitoneal) in B6D2F1 (BDF1) mice
Details: endpoint: mean survival time, higher = longer survival
Method in brief: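 Transplanted-tumor mice were given test agent; controls received vehicle only. Survival readings from the two groups were divided (treated over control).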

[1] = dose: 100.0 mg/kg/injection, schedule: Q04DX002 (ip), vehicle: Klucel (hydroxypropylcellulose) (HPC)
[2] = dose: 200.0 mg/kg/injection, schedule: Q04DX002 (ip), vehicle: Klucel (hydroxypropylcellulose) (HPC)
[3] = dose: 400.0 mg/kg/injection, schedule: Q04DX002 (ip), vehicle: Klucel (hydroxypropylcellulose) (HPC)
[4] = dose: 100.0 mg/kg/injection, schedule: Q01DX001 (ip), vehicle: other
[5] = dose: 200.0 mg/kg/injection, schedule: Q01DX001 (ip), vehicle: other
[6] = dose: 400.0 mg/kg/injection, schedule: Q01DX001 (ip), vehicle: other
[7] = dose: 100.0 mg/kg/injection, schedule: Q01DX009 (ip), vehicle: Klucel (hydroxypropylcellulose) (HPC)
[8] = dose: 100.0 mg/kg/injection, schedule: Q04DX003 (ip), vehicle: Klucel (hydroxypropylcellulose) (HPC)
[9] = dose: 200.0 mg/kg/injection, schedule: Q01DX009 (ip), vehicle: Klucel (hydroxypropylcellulose) (HPC)
[10] = dose: 200.0 mg/kg/injection, schedule: Q04DX003 (ip), vehicle: Klucel (hydroxypropylcellulose) (HPC)
[11] = dose: 400.0 mg/kg/injection, schedule: Q04DX003 (ip), vehicle: Klucel (hydroxypropylcellulose) (HPC)
[12] = dose: 100.0 mg/kg/injection, schedule: Q01DX001 (ip), vehicle: saline
[13] = dose: 200.0 mg/kg/injection, schedule: Q01DX001 (ip), vehicle: saline
[14] = dose: 400.0 mg/kg/injection, schedule: Q01DX001 (ip), vehicle: saline

Measured: T/C

c1ccc2c(c1)cc1ccc3cc4ccccc4c4ccc2c1c34
inactive: dose: 50.0 mg/kg/injection, schedule: Q01DX009 (ip), vehicle: acetone 110 % of control | dose: 100.0 mg/kg/injection, schedule: Q01DX001 (ip), vehicle: carboxymethylcellulose (CMC) 100 % of control | dose: 100.0 mg/kg/injection, schedule: Q01DX009 (ip), vehicle: acetone 105 % of control | dose: 200.0 mg/kg/injection, schedule: Q01DX001 (ip), vehicle: carboxymethylcellulose (CMC) 100 % of control | dose: 200.0 mg/kg/injection, schedule: Q01DX009 (ip), vehicle: acetone 107 % of control | dose: 400.0 mg/kg/injection, schedule: Q01DX001 (ip), vehicle: carboxymethylcellulose (CMC) 100 % of control

CN(C)C(=O)Oc1c(Cl)c(Cl)c(OC(=O)N(C)C)c(Cl)c1Cl
inactive: [1] 94 % of control | [2] 105 % of control | [3] 90 % of control

Nc1nc2c(ncn2C(/C=N/Nc2ccccc2)OC(/C=N/Nc2ccccc2)CO)c(=O)[nH]1 (centres undefined)
inactive: [4] 98 % of control | [5] 106 % of control | [6] 108 % of control

c1cc(N=NNc2cccc(C3=NCCN3)c2)cc(C2=NCCN2)c1
inactive: dose: 7.75 mg/kg/injection, schedule: Q01DX015 (ip), vehicle: water 100 % of control | dose: 15.5 mg/kg/injection, schedule: Q01DX015 (ip), vehicle: water 94 % of control | dose: 31.0 mg/kg/injection, schedule: Q01DX015 (ip), vehicle: water 100 % of control | dose: 62.0 mg/kg/injection, schedule: Q01DX015 (ip), vehicle: water 98 % of control

O=C1C(=O)c2ccccc2C(O)=C1CCCc1ccc(OCc2ccccc2)cc1
inactive: dose: 12.5 mg/kg/injection, schedule: Q01DX009 (ip), vehicle: saline with Tween-80 92 % of control

CC(C)OC(=O)Nc1ccc(-c2ccc(NC(=O)OC(C)C)cc2)cc1
inactive: [7] 95 % of control | [8] 91 % of control | [9] 97 % of control | [10] 91 % of control | dose: 400.0 mg/kg/injection, schedule: Q01DX009 (ip), vehicle: Klucel (hydroxypropylcellulose) (HPC) 97 % of control | [11] 98 % of control

CCCCOC(=O)c1ccc(O)c(OC)c1
inactive: [12] 100 % of control | [13] 105 % of control | [14] 102 % of control

COC(=O)c1cc(C)cc([N+](=O)[O-])c1C
inactive: dose: 50.0 mg/kg/injection, schedule: Q01DX001 (ip), vehicle: saline 91 % of control | [12] 111 % of control | [13] 100 % of control | [14] 102 % of control

N#C[Se]C[Se]C#N
inactive: dose: 1.56 mg/kg/injection, schedule: Q01DX001 (ip), vehicle: saline 95 % of control | dose: 3.13 mg/kg/injection, schedule: Q01DX001 (ip), vehicle: saline 100 % of control | dose: 6.25 mg/kg/injection, schedule: Q01DX001 (ip), vehicle: saline 100 % of control

O=C(Nc1ccc(F)cc1)C(Cl)(Cl)Cl
inactive: [1] 102 % of control | [2] 94 % of control | [3] 94 % of control

O=[N+]([O-])c1ccc(C=Nc2ccc(C(c3ccccc3)(c3ccccc3)c3ccccc3)cc2)s1
inactive: [8] 95 % of control | [10] 97 % of control | [11] 93 % of control

O=C(C[n+]1ccc2ccccc2c1)c1ccc(-c2ccccc2)cc1
inactive: dose: 25.0 mg/kg/injection, schedule: Q04DX003 (ip), vehicle: saline 98 % of control | dose: 50.0 mg/kg/injection, schedule: Q04DX003 (ip), vehicle: saline 105 % of control | [12] 94 % of control | dose: 100.0 mg/kg/injection, schedule: Q04DX003 (ip), vehicle: saline 100 % of control | [13] 101 % of control

O=[N+]([O-])c1cccc(S(=O)(=O)OCC2CO2)c1 (centres undefined)
inactive: [7] 98 % of control | [9] 104 % of control

CC1=C(/C=C\C(C)=N\NC(=O)c2ccc[n+](C)c2)C(C)(C)CCC1
inactive: dose: 12.5 mg/kg/injection, schedule: Q01DX009 (ip), vehicle: saline 98 % of control | dose: 25.0 mg/kg/injection, schedule: Q01DX009 (ip), vehicle: saline 88 % of control | dose: 50.0 mg/kg/injection, schedule: Q01DX009 (ip), vehicle: saline 104 % of control and 88 % of control

O=S1(=O)CCCC1C(O)c1ccccc1 (centres undefined)
inactive: [8] 94 % of control and 98 % of control | [10] 105 % of control and 102 % of control | [11] 105 % of control and 94 % of control

Cc1ccc(/C(=N\N=C(N)N)C2CC2)cc1C
inactive: dose: 15.0 mg/kg/injection, schedule: Q01DX Z (ip), vehicle: methylcellulose (MC) 103 % of control | dose: 30.0 mg/kg/injection, schedule: Q01DX Z (ip), vehicle: methylcellulose (MC) 97 % of control | dose: 30.0 mg/kg/injection, schedule: Q01DX Z (oral), vehicle: methylcellulose (MC) 95 % of control | dose: 60.0 mg/kg/injection, schedule: Q01DX Z (ip), vehicle: methylcellulose (MC) 93 % of control | dose: 60.0 mg/kg/injection, schedule: Q01DX Z (oral), vehicle: methylcellulose (MC) 88 % of control

Cc1[nH]nc2c(=S)[nH]c(=O)[nH]c12
inactive: dose: 75.0 mg/kg/injection, schedule: Q01DX001 (ip), vehicle: saline 92 % of control | dose: 150.0 mg/kg/injection, schedule: Q01DX001 (ip), vehicle: saline 96 % of control

CCOC(=O)Nc1cc2c(nnn2C(c2ccccc2)c2ccccc2)c(N)n1
inactive: dose: 5.0 mg/kg/injection, schedule: Q01DX001 (ip), vehicle: other 112 % of control | dose: 10.0 mg/kg/injection, schedule: Q01DX001 (ip), vehicle: other 98 % of control | dose: 20.0 mg/kg/injection, schedule: Q01DX001 (ip), vehicle: other 93 % of control | dose: 40.0 mg/kg/injection, schedule: Q01DX001 (ip), vehicle: other 91 % of control | dose: 80.0 mg/kg/injection, schedule: Q01DX001 (ip), vehicle: other 86 % of control

O=c1ccc2c(-c3ccccc3O)c3ccc(O)cc3oc-2c1
inactive: [8] 93 % of control | [10] 94 % of control | [11] 92 % of control

COC1=C(C)CCC1=O
inactive: dose: 37.5 mg/kg/injection, schedule: Q04DX002 (ip), vehicle: saline 106 % of control | dose: 75.0 mg/kg/injection, schedule: Q04DX002 (ip), vehicle: saline 95 % of control | dose: 150.0 mg/kg/injection, schedule: Q04DX002 (ip), vehicle: saline 98 % of control | dose: 300.0 mg/kg/injection, schedule: Q04DX002 (ip), vehicle: saline 88 % of control

CCCCCCCCCCCCCCNC1=C(OC)C(=O)C(NCCCCCCCCCCCCCC)=C(OC)C1=O
inactive: [4] 95 % of control | [5] 104 % of control | [6] 90 % of control

NC(=O)NNC1OCC(O)C(O)C1O (centres undefined)
inactive: dose: 100.0 mg/kg/injection, schedule: Q01DX009 (ip), vehicle: saline 90 % of control | dose: 100.0 mg/kg/injection, schedule: Q04DX003 (ip), vehicle: water 96 % of control | dose: 200.0 mg/kg/injection, schedule: Q01DX009 (ip), vehicle: saline 95 % of control | dose: 200.0 mg/kg/injection, schedule: Q04DX003 (ip), vehicle: water 96 % of control | dose: 400.0 mg/kg/injection, schedule: Q01DX009 (ip), vehicle: saline 97 % of control | dose: 400.0 mg/kg/injection, schedule: Q04DX003 (ip), vehicle: water 97 % of control

O=C(NC(=S)Nc1ccc2c(c1)C(=O)c1ccccc1C2=O)c1cccc(Br)c1
inactive: dose: 50.0 mg/kg/injection, schedule: Q01DX009 (ip), vehicle: saline with Tween-80 98 % of control | dose: 100.0 mg/kg/injection, schedule: Q01DX001 (ip), vehicle: saline with Tween-80 96 % of control | dose: 100.0 mg/kg/injection, schedule: Q01DX009 (ip), vehicle: saline with Tween-80 98 % of control and 92 % of control | dose: 100.0 mg/kg/injection, schedule: Q04DX002 (ip), vehicle: saline with Tween-80 96 % of control and 97 % of control | dose: 200.0 mg/kg/injection, schedule: Q01DX001 (ip), vehicle: saline with Tween-80 93 % of control | dose: 200.0 mg/kg/injection, schedule: Q01DX009 (ip), vehicle: saline with Tween-80 97 % of control and 98 % of control | dose: 200.0 mg/kg/injection, schedule: Q04DX002 (ip), vehicle: saline with Tween-80 94 % of control and 103 % of control | dose: 400.0 mg/kg/injection, schedule: Q01DX001 (ip), vehicle: saline with Tween-80 103 % of control | dose: 400.0 mg/kg/injection, schedule: Q04DX002 (ip), vehicle: saline with Tween-80 96 % of control and 97 % of control
